Source: ChEMBL document CHEMBL2069212, “Identification and in vivo and in vitro characterization of long acting and melanocortin 4 receptor (MC4-R) selective α-melanocyte-stimulating hormone (α-MSH) analogues” (J Med Chem, 2012)
pEC50, pKi: −log10 of the molar value. Active and inactive are the calls of the source. No cut-off for these calls is given here.

Key:
[1] = biological target: Melanocyte-stimulating hormone receptor (Homo sapiens, UniProt Q01726); assay: Displacement of [125I]-NAD-alpha-MSH from human recombinant MC1 receptor expressed in BHK570 cells after 90 mins in presence of ovalbumin; type: cell-based
Melanocortin receptor 4 [2] = biological target: T1, Melanocortin receptor 4 (Homo sapiens, UniProt P32245); assay: Displacement of [125I]-NAD-alpha-MSH from MC4 receptor after 2 hrs by gamma counting in presence of ovalbumin
Melanocortin receptor 5 = Melanocortin receptor 5 (Homo sapiens, UniProt P33032); assay: Displacement of [125I]-NAD-alpha-MSH from human recombinant MC3 receptor human MC5 expressed in BHK570 cells after 1 hr in presence of ovalbumin; type: cell-based
Rattus norvegicus [3] = assay: Antiobesity activity in Sprague-Dawley rat assessed as reduction of food intake at 3 mg/kg, sc qd measured after 7 to 24 hrs relative to control; type: functional; parameters: scale not given: the % may be the effect or the level left; details: route subcutaneous
Rattus norvegicus [4] = assay: Antiobesity activity in Sprague-Dawley rat assessed as reduction of food intake at 3 mg/kg, sc qd measured after 24 to 48 hrs relative to control; type: functional; details: route subcutaneous
Rattus norvegicus [5] = assay: Antiobesity activity in Sprague-Dawley rat assessed as reduction of food intake at 3 mg/kg, sc qd measured up to 7 hrs relative to control; type: functional; parameters: scale not given: the % may be the effect or the level left; details: route subcutaneous
Melanocortin receptor 3 = Melanocortin receptor 3 (Homo sapiens, UniProt P41968); assay: Displacement of [125I]-NAD-alpha-MSH from human recombinant MC3 receptor expressed in BHK570 cells after 1 hr in presence of ovalbumin; type: cell-based
Melanocortin receptor 4 [6] = biological target: T1, Melanocortin receptor 4; assay: Agonist activity at human recombinant MC4 receptor expressed in BHK570 cells assessed as induction of […] accumulation in presence of 0.1% human serum albumin; type: functional, cell-based
[7] = biological target: Melanocortin receptor 4 (Rattus norvegicus) (UniProt P70596); assay: Agonist activity at rat MC4 receptor; type: functional
Chain of Melanocortin receptor 4 (Rattus norvegicus) (P70596 whole entry): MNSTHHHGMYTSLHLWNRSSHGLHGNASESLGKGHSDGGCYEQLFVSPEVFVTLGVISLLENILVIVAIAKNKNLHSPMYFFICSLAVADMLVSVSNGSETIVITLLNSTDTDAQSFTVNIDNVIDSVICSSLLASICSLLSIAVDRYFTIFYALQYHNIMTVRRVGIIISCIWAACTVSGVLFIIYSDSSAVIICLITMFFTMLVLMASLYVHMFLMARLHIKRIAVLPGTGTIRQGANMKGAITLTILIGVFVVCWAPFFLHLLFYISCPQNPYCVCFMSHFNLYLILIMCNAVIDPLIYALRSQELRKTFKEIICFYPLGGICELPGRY

T1 sequence (P32245 whole entry): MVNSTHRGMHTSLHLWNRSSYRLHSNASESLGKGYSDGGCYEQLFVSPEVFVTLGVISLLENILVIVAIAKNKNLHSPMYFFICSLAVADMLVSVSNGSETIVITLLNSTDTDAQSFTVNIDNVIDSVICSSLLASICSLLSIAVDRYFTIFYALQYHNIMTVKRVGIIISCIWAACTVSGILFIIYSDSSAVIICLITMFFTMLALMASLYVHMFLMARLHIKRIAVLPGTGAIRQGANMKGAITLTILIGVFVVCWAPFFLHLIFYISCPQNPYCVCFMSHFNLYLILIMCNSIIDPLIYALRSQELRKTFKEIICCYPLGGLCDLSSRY
Chain of Melanocortin receptor 5 (P33032 whole entry): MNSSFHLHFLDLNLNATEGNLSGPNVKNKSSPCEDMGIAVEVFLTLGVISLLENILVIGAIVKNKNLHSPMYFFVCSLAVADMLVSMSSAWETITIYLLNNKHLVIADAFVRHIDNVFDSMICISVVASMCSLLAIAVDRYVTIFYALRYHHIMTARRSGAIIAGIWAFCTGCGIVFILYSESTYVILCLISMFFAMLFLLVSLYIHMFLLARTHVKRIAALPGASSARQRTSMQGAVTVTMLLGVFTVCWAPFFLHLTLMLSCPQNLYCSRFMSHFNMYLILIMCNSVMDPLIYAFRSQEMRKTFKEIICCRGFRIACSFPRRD
Chain of Melanocyte-stimulating hormone receptor (Q01726 whole entry): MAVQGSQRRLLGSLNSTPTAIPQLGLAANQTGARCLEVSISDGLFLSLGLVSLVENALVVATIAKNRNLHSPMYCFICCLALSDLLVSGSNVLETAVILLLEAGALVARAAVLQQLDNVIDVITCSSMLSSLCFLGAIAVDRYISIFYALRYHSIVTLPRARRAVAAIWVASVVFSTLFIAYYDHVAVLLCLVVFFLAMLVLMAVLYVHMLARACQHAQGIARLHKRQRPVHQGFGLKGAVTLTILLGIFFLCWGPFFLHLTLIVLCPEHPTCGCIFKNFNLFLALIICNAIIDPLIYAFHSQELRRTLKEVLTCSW
Chain of Melanocortin receptor 3 (P41968 whole entry): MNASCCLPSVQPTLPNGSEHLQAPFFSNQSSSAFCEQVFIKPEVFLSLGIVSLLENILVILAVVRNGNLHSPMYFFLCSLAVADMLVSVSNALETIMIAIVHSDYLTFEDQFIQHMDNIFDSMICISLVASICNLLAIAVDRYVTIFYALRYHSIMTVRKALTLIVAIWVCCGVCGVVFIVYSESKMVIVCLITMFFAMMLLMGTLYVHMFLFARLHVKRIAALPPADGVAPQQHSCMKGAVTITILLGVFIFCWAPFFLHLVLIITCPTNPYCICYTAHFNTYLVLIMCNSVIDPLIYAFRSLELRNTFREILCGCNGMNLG

| SMILES | pKi [1] | pKi (Melanocortin receptor 4 [2]) | pKi (Melanocortin receptor 5) | Activity (Rattus norvegicus [3]) [%] | Food intake relative to control (Rattus norvegicus [4]) [%] | Activity (Rattus norvegicus [5]) [%] | pKi (Melanocortin receptor 3) | pEC50 (Melanocortin receptor 4 [6]) | Activity [7] |
| --- | --- | --- | --- | --- | --- | --- | --- | --- | --- |
| CCCC[C@H](NC(=O)[C@H](CCC(=O)O)NC(=O)[C@H](Cc1c[nH]cn1)NC(=O)[C@H](CCC(=O)O)NC(=O)[C@H](CCC(=O)O)NC(=O)CNC(=O)COCCOCCNC(=O)CCCCCCCCCCCCCCCc1nnn[nH]1)C(=O)N[C@H]1CCC(=O)NCCCC[C@@H](C(N)=O)NC(=O)[C@H](Cc2c[nH]c3ccccc23)NC(=O)[C@H](CCCNC(=N)N)NC(=O)[C@@H](Cc2ccccc2)NC(=O)[C@@H]2C[C@@H](O)CN2C1=O | 5.09 | 8.11 | 6.96 | 79 | 88 | 75 | 6.35 | – | – |
| CCCC[C@H](NC(=O)[C@H](CCCNC(=N)N)NC(=O)[C@H](Cc1cnc[nH]1)NC(=O)[C@H](CCC(N)=O)NC(=O)[C@H](CO)NC(=O)CNC(=O)COCCOCCNC(=O)CCCCCCCCCCCCCCCc1nnn[nH]1)C(=O)N[C@H]1CCC(=O)NCCCC[C@@H](C(N)=O)NC(=O)[C@H](Cc2c[nH]c3ccccc23)NC(=O)[C@H](CCCNC(=N)N)NC(=O)[C@@H](Cc2ccccc2)NC(=O)[C@@H]2C[C@@H](O)CN2C1=O | 7.36 | 10.10 | 8.52 | 51 | 83 | 46 | 7.57 | 8.33 | – |
| CCCC[C@H](NC(=O)[C@H](CCC(=O)O)NC(=O)[C@H](CCCN=C(N)N)NC(=O)[C@H](CCC(=O)O)NC(=O)[C@H](CCC(=O)O)NC(=O)CNC(=O)COCCOCCNC(=O)CCCCCCCCCCCCCCCc1nnn[nH]1)C(=O)N[C@H]1CCC(=O)NCCCC[C@@H](C(N)=O)NC(=O)[C@H](Cc2c[nH]c3ccccc23)NC(=O)[C@H](CCCN=C(N)N)NC(=O)[C@@H](Cc2ccccc2)NC(=O)[C@@H]2C[C@@H](O)CN2C1=O | < 5.00 | 7.46 | 6.57 | – | – | – | 5.96 | 6.57 | – |
| CCCC[C@H](NC(=O)[C@H](CN)NC(=O)[C@H](Cc1cnc[nH]1)NC(=O)[C@H](CCC(N)=O)NC(=O)[C@H](CO)NC(=O)CNC(=O)COCCOCCNC(=O)CCCCCCCCCCCCCCCc1nnn[nH]1)C(=O)N[C@H]1CCC(=O)NCCCC[C@@H](C(N)=O)NC(=O)[C@H](Cc2c[nH]c3ccccc23)NC(=O)[C@H](CCCNC(=N)N)NC(=O)[C@@H](Cc2ccccc2)NC(=O)[C@@H]2C[C@@H](O)CN2C1=O | – | – | – | 45 | 73 | 49 | – | – | Active |
| CCCC[C@H](NC(=O)[C@@H](N)CNC(=O)[C@H](Cc1cnc[nH]1)NC(=O)[C@H](CCC(N)=O)NC(=O)[C@H](CO)NC(=O)CNC(=O)COCCOCCNC(=O)CCCCCCCCCCCCCCCc1nnn[nH]1)C(=O)N[C@H]1CCC(=O)NCCCC[C@@H](C(N)=O)NC(=O)[C@H](Cc2c[nH]c3ccccc23)NC(=O)[C@H](CCCN=C(N)N)NC(=O)[C@@H](Cc2ccccc2)NC(=O)[C@@H]2C[C@@H](O)CN2C1=O | 6.15 | 9.77 | 7.40 | – | – | – | 6.92 | 7.07 | – |
| CCCC[C@H](NC(=O)[C@H](CN)NC(=O)[C@H](Cc1cnc[nH]1)NC(=O)[C@H](CCC(N)=O)NC(=O)[C@H](CO)NC(=O)CNC(=O)COCCOCCNC(=O)CCCCCCCCCCCCCCCc1nnn[nH]1)C(=O)N[C@H]1CCC(=O)NCCCC[C@@H](C(N)=O)NC(=O)[C@H](Cc2c[nH]c3ccccc23)NC(=O)[C@H](CCCN=C(N)N)NC(=O)[C@@H](Cc2ccccc2)NC(=O)[C@@H]2C[C@@H](O)CN2C1=O | 6.40 | 9.77 | 8.00 | – | – | – | 7.38 | 7.21 | – |
| CCCC[C@H](NC(=O)[C@H](CO)NC(=O)[C@H](Cc1cnc[nH]1)NC(=O)[C@H](CCC(N)=O)NC(=O)[C@H](CO)NC(=O)CNC(C)=O)C(=O)N[C@H]1CCC(=O)NCCCC[C@@H](C(N)=O)NC(=O)[C@H](Cc2c[nH]c3ccccc23)NC(=O)[C@H](CCCNC(=N)N)NC(=O)[C@@H](Cc2ccccc2)NC(=O)[C@@H]2C[C@@H](O)CN2C1=O | 6.70 | 8.34 | 8.29 | 99 | 103 | 55 | 7.35 | 8.70 | – |
| CCCC[C@H](NC(=O)[C@H](CCC(=O)O)NC(=O)[C@H](CCC(=O)O)NC(=O)[C@H](CCC(=O)O)NC(=O)[C@H](CCC(=O)O)NC(=O)CNC(=O)COCCOCCNC(=O)CCCCCCCCCCCCCCCc1nnn[nH]1)C(=O)N[C@H]1CCC(=O)NCCCC[C@@H](C(N)=O)NC(=O)[C@H](Cc2c[nH]c3ccccc23)NC(=O)[C@H](CCCNC(=N)N)NC(=O)[C@@H](Cc2ccccc2)NC(=O)[C@@H]2C[C@@H](O)CN2C1=O | < 5.00 | 6.60 | 6.15 | – | – | – | 5.80 | – | – |
| CCCC[C@H](NC(=O)[C@H](CNC(C)C)NC(=O)[C@H](Cc1cnc[nH]1)NC(=O)[C@H](CCC(N)=O)NC(=O)[C@H](CO)NC(=O)CNC(=O)COCCOCCNC(=O)CCCCCCCCCCCCCCCc1nnn[nH]1)C(=O)N[C@H]1CCC(=O)NCCCC[C@@H](C(N)=O)NC(=O)[C@H](Cc2c[nH]c3ccccc23)NC(=O)[C@H](CCCNC(=N)N)NC(=O)[C@@H](Cc2ccccc2)NC(=O)[C@@H]2C[C@@H](O)CN2C1=O | 6.57 | 9.59 | 8.47 | 40 | 72 | 50 | 7.89 | 7.82 | – |
| CCCC[C@H](NC(=O)[C@H](CO)NC(=O)[C@H](Cc1cnc[nH]1)NC(=O)[C@H](CCC(N)=O)NC(=O)[C@H](CO)NC(=O)CNC(=O)COCCOCCNC(=O)CCCCCCCCCCCCCCCc1nnn[nH]1)C(=O)N[C@H]1CCC(=O)NCCCC[C@@H](C(N)=O)NC(=O)[C@H](Cc2c[nH]c3ccccc23)NC(=O)[C@H](CCCNC(=N)N)NC(=O)[C@@H](Cc2ccccc2)NC(=O)[C@@H]2C[C@@H](O)CN2C1=O | 5.92 | 9.70 | 7.82 | 56 | 92 | 79 | 7.17 | 6.77 | – |
| CCCCCCCCCCCCCCCC(=O)NCC(=O)NCC(=O)NCC(=O)NCC(=O)NCC(=O)N[C@@H](CCCC)C(=O)N[C@H]1CCC(=O)NCCCC[C@@H](C(N)=O)NC(=O)[C@H](Cc2c[nH]c3ccccc23)NC(=O)[C@H](CCCNC(=N)N)NC(=O)[C@@H](Cc2ccccc2)NC(=O)[C@@H]2C[C@@H](O)CN2C1=O | 6.89 | 9.48 | 8.52 | 76 | 94 | 110 | 8.10 | 9.00 | – |
| CCCC[C@H](NC(=O)[C@H](CN(C)C)NC(=O)[C@H](Cc1cnc[nH]1)NC(=O)[C@H](CCC(N)=O)NC(=O)[C@H](CO)NC(=O)CNC(=O)COCCOCCNC(=O)CCCCCCCCCCCCCCCc1nnn[nH]1)C(=O)N[C@H]1CCC(=O)NCCCC[C@@H](C(N)=O)NC(=O)[C@H](Cc2c[nH]c3ccccc23)NC(=O)[C@H](CCCNC(=N)N)NC(=O)[C@@H](Cc2ccccc2)NC(=O)[C@@H]2C[C@@H](O)CN2C1=O | 6.36 | 9.89 | 8.54 | 60 | 82 | 62 | 7.96 | 6.89 | – |
| CCCC[C@H](NC(=O)[C@H](CO)NC(=O)[C@H](CCCCN=C(N)N)NC(=O)[C@H](CCC(N)=O)NC(=O)[C@H](CO)NC(=O)CNC(C)=O)C(=O)N[C@H]1CCC(=O)NCCCC[C@@H](C(N)=O)NC(=O)[C@H](Cc2c[nH]c3ccccc23)NC(=O)[C@H](CCCN=C(N)N)NC(=O)[C@@H](Cc2ccccc2)NC(=O)[C@@H]2C[C@@H](O)CN2C1=O | 7.14 | 9.00 | 8.37 | – | – | – | 7.66 | 9.33 | – |
| CCCCCCCCCCCCCCCC(=O)NCC(=O)N[C@@H](CO)C(=O)N[C@@H](CCC(N)=O)C(=O)N[C@@H](Cc1cnc[nH]1)C(=O)N[C@@H](CO)C(=O)N[C@@H](CCCC)C(=O)N[C@H]1CCC(=O)NCCCC[C@@H](C(N)=O)NC(=O)[C@H](Cc2c[nH]c3ccccc23)NC(=O)[C@H](CCCNC(=N)N)NC(=O)[C@@H](Cc2ccccc2)NC(=O)[C@@H]2C[C@@H](O)CN2C1=O | 8.10 | 9.92 | 8.80 | 58 | 81 | 63 | 8.60 | 9.77 | – |
| CCCCCCCCCCCCCCCC(=O)NCC(=O)N[C@@H](CO)C(=O)N[C@@H](CCC(N)=O)C(=O)N[C@@H](CCCCNC(=N)N)C(=O)N[C@@H](CO)C(=O)N[C@@H](CCCC)C(=O)N[C@H]1CCC(=O)NCCCC[C@@H](C(N)=O)NC(=O)[C@H](Cc2c[nH]c3ccccc23)NC(=O)[C@H](CCCNC(=N)N)NC(=O)[C@@H](Cc2ccccc2)NC(=O)[C@@H]2C[C@@H](O)CN2C1=O | 8.49 | 9.43 | 9.33 | 57 | 82 | 71 | 8.70 | 10.40 | – |
